Here are results for one compound from patent US20210205291A1, “NITROGENOUS HETEROCYCLIC AMIDE DERIVATIVE, PREPARATION METHOD THEREOF, AND PHARMACEUTICAL APPLICATION” (Sichuan Haisco Pharmaceutical Co., Ltd., priority 2016, published 2021).

In series [1] the target is human β2-adrenergic receptor (Homo sapiens, UniProt P07550). Briefly: Agonistic activity on human β2-adrenergic receptor (LANCE Ultra cAMP Assay in CHO cells). It is filed as cell-based. Conditions: CHO cells expressing hβ2; cAMP TR-FRET. Here is the method:
The agonistic activity of the compounds of the Examples on the human adrenergic receptor was measured by the LANCE Ultra cAMP Assay.
CHO cells (PerkinElmer, ES-034-AF) that stably express human adrenergic receptor (hβ2) were cultured at 37° C. 5% CO2 in MEM-alpha media (Invitrogen 12561-056) containing 10% fetal bovine serum (FBS) (Gibico 10099-141) and 250 μg/ml Zeocin (InvivoGen ant-zn-5p), until a confluency of 90% to 100% was reached. Then the agonism on cAMP was tested by using a LANCE Ultra cAMP Assay kit (PerkinElmer TRF0263). Cells were separated with PBS/5 mM EDTA, collected by centrifugation, re-suspended in Stimulation Buffer (1×HBSS, 5 mM HEPES, 0.5 mM IBMX, 0.1% BSA, pH=7.4), and adjusted to a cell concentration of 6×10^5 cells/ml. The compounds of the Examples were formulated with DMSO into 10 mM stock solutions, diluted in series with Stimulation Buffer, and added to a 384-well plate at 5 μl/well. 5 μl cell suspension was further added to each well (3,000 cells/well), incubated for 30 min at room temperature, then 5 μl of a 4×Eu-cAMP trace working solution was added to each well, and then 5 μl of a 4×Ulight-anti-cAMP working solution was added to each well, followed by incubation at room temperature for 1 hour. The 384-well plate was detected for TR-FRET under a microplate reader (Perkin Elmer, Envision), and EC50 values were calculated and analyzed by Origin 7.5.
A general note: TR-FRET usually uses a lanthanide donor and a delayed reading to cut background.

Series [2] is described as follows: Pharmacokinetic evaluation in SD rats. It is filed as in vivo. Here is the method:
18 male SD rats, eight weeks old, were purchased from Vital River Laboratory Animal Technology Co., Ltd., and adapted for 3 days before the experiments were started. The SD rats were randomized into 3 groups, fasted one day before administration but allowed access to water. The 3 groups of animals were administrated with 1 mg/kg compound either by tail vein injection (iv) or by intratracheal (it) administration. The compounds were formulated into 20 mg/ml stock solutions with 83% ethanol and 17% Tween80. For intravenous injection, 0.1 ml of the stock solution was diluted to the final volume with 9.9 ml physiological saline. For intratracheal administration, 0.25 ml of the stock solution was diluted with 4.75 ml physiological saline to the final volume. For the group for intravenous injection, right before administration (0 h) and 5 min, 15 min, 30 min, 1.0, 2.0, 4.0, 8.0, 24.0 h after administration, 0.1 ml blood was taken from the orbit, heparin was added for anticoagulation, and plasma was separated after centrifugation at 4° C., 3000 rpm for 10 min and stored at −80° C. before testing. For the group for intratracheal administration, right before administration and 5 min, 15 min, 30 min, 1.0, 2.0, 4.0, 8.0, 24.0 h after administration, blood was taken and treated the same way as for the group for intravenous injection. 30 μl plasma of rat at each of the time points was mixed with 200 μl acetonitrile solution containing an internal standard, vortexed for 1 min, and centrifuged at 11300 rpm for 10 min, and 175 μl of the supernatant was added to a 96-well plated for LC-MS/MS analysis. The major pharmacokinetic parameters were analyzed using the software WinNonlin 6.3 at the non-compartment mode.

Series [3] deals with methacholine-induced bronchoconstriction in guinea pigs. Description: Inhibition against methacholine-induced bronchoconstriction in guinea pigs (PenH, whole-body plethysmograph). The settings on record: intratracheal, 0.3 nmol per animal, 3 mg/ml methacholine. It is filed as in vivo. Here is the method:
8-week-old guinea pigs (all male) were purchased from Vital River Laboratory Animal Technology Co., Ltd., and adapted for 3 days before the experiments were started. The test compounds were formulated into 0.6 mM stock solutions with 83% dry ethanol+17% Tween80, which were diluted 500 times before administration. Before administration, the animals were anesthetized with 5% isoflurane by using a small-animal anesthetic apparatus (Matrx: VME2), wherein the anesthetic duration was 1.5 to 2 min. The anesthetized guinea pigs were fixed on a tracheal cannula platform, and intratracheally administrated with the compounds at 250 μl/animal by using a rat liquid-aerosol administration kit (penn-century; MSA-250-R). 4 hours and 24 hours after administration, the enhanced pauses (PenH) of the guinea pigs were measured in a whole-body plethysmograph (DSI; GS220A12-R7B). 3 mg/ml methacholine (Mch) was administrated by nebulization for 36 sec, and data was recorded over 7 min. The average of PenH was calculated (see J Pharmacol Exp Ther 345:260-270).
PenH calculation formula: PenH=PEP/PIP*Pause; Pause=(Te−Tr)/Tr
Te: Duration of expiratory phase (s)
Tr: Duration of relaxation phase (s)
PEP: Expiratory peak flow rate (ml/s)
PIP: Inspiratory peak flow rate (ml/s)

Series [4] concerns the target human muscarine receptor M3 (Homo sapiens, UniProt P20309). Description: Inhibitory activity against human muscarine receptor M3 (aequorin luminescence in CHO cells, acetylcholine challenge). It is filed as cell-based. The settings on record: CHO cells expressing hM3 and apo-Aequorin; acetylcholine chloride 112.92 nM. Here is the method: CHO cells (PerkinElmer, ES-212-AF) that stably express human muscarine receptor 3 (hM3) and apo-Aequorin were cultured at 37° C. 5% CO2 in Ham's F12 media (Invitrogen 12500-062) containing 10% fetal bovine serum (FBS) (Gibico 10099-141), 400 μg/mL G418 (sigma G5013) and 250 μg/mL Zeocin (Invivogen ant-zn-5p), until a confluency of 90% to 100% was reached. Cells were separated by rinsing with PBS/5 mM EDTA, collected by centrifugation, re-suspended in phenol red-free Ham's F12 media (Invitrogen 12500-062) containing 0.1% BSA (BOVOGEN BSAS 100), and counted. The cell concentration was adjusted to 1×10^6 cells/ml. 15 ml of the cell suspension was added to a 50-ml centrifuge tube, to which Coelenterazine-h (Promega S2011) was added to a final concentration of 5 μM. The tube was wrapped with a tin foil to shade light, and incubated on a rotary shaker at 20° C. for 4 hours. The cells were diluted with a phenol red-free/0.1% BSA Ham's F12 medium to a final concentration of 5.0/10^5 cells/ml, placed on a rotary shaker in low-speed rotation, and incubated at room temperature for at least 1 hour. The compounds of the Examples were formulated with DMSO into 10 mM stock solutions, diluted in series with a phenol red-free/0.1% BSAHam's F12 medium (log(M): −7, −8, −9, −10, −11), and added to a 96-well plate at 50 μl/well. 50 μl cell suspension was further added to each well (25,000 cells/well) and incubated for 15 min at room temperature. The 96-well plate was placed under a microplate reader (Perkin Elmer, Envision), and a 50 μl solution of acetylcholine chloride (Sigma A6625) was added to each well at a concentration of 112.92 nM (hM3) with a microplate reader sample injector. The luminescence was recorded over 20 seconds, and IC50 values were calculated and analyzed by Origin 7.5.

The mark [5] stands for this setting: Sprague-Dawley (SD), rat, inhaled or intranasal, male SD rats, it (intratracheal), 1 mg/kg, plasma.
Where [6] appears, read: Sprague-Dawley (SD), rat, male SD rats, iv (tail vein), 1 mg/kg, plasma.

Structures are written as SMILES.

For orientation: EC50 means the concentration that produces a half-maximal response. A lower EC50 goes with a more potent agent. A word on the AUC(0-inf): it is the area under the concentration-time curve extrapolated to infinity. A low value points to less exposure. In general, Cmax refers to the maximum level reached in the sampled fluid or tissue. One may read the Tmax as the time from dosing to the highest level. In general, half-life refers to how long it takes for the measured level to halve. High values mean slow decline, low ones rapid decline. By IC50 is commonly meant the midpoint of a concentration-inhibition curve. The low end stands for inhibition by little substance, the high end for a need for much substance.

Sequence of human muscarine receptor M3 (P20309 whole entry): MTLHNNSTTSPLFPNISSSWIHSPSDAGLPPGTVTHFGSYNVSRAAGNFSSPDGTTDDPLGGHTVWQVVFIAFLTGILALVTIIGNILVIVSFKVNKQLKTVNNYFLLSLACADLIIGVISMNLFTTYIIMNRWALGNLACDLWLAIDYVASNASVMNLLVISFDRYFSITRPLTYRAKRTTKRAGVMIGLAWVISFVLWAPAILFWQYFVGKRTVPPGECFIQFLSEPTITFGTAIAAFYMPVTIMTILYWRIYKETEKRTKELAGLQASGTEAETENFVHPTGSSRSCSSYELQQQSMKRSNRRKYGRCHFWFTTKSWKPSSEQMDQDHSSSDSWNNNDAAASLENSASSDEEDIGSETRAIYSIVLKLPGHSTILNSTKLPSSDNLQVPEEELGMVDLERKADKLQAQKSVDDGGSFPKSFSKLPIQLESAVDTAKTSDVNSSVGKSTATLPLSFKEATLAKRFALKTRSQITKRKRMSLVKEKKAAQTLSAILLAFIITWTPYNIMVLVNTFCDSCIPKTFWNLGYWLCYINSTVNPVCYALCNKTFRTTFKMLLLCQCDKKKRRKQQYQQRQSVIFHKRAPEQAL
Sequence of human β2-adrenergic receptor (P07550 whole entry): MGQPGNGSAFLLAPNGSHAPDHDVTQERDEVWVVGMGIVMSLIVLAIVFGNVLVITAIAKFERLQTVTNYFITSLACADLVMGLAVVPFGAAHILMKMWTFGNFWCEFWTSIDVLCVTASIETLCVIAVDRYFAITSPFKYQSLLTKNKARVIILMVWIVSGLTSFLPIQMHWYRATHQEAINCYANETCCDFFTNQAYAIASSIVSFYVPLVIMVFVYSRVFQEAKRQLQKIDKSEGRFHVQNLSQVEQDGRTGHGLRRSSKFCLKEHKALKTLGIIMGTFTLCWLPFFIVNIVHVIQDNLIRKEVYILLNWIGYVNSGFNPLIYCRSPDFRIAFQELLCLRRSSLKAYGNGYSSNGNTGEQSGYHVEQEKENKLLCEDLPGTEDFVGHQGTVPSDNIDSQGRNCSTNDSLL

In turn, `O=C(Nc1ccc(CNC[C@H](O)c2ccc(O)c3[nH]c(=O)ccc23)cc1)OCC1CCN(C(=O)CCN2CCC(OC(=O)Nc3ccccc3-c3ccccc3)CC2)CC1` [Compound 2, [1-[3-[4-[(2-phenylphenyl)carbamoyloxy]-1-piperidyl]propanoyl]-4-piperidyl]methyl N-[4-[[[(2R)-2-hydroxy-2-(8-hydroxy-2-oxo-1H-quinolin-5-yl)ethyl]amino]methyl]phenyl]carbamate; ditrifluoroacetic acid] displayed an EC50 in series [1] of 1.85 nM. Further, in series [2] (setting [5]), the AUC(0-inf) is 11.6 ng·h/mL, the peak level (Cmax) was 7.08 ng/mL, the Tmax came out at 34.8 min and the half-life was 45 min. In series [2] (setting [6]), the AUC(0-inf) worked out at 9.27 ng·h/mL and the half-life is 27.6 min. In series [2] (after iv and it administrations, rats, in words), the “in vivo exposure level” value is on record as “low in vivo exposure level”. In addition, the “PenH Inhibition (%) 4 h” value in series [3] (4 h after administration) stood at 94.8%. Moreover, the “PenH Inhibition (%) 24 h” value in series [3] (24 h after administration) came to 53.8%. Besides, the IC50 in series [4] turned out to be 1.69 nM.
